Measured values: paper PMC11651915, “Small molecule protein assembly modulators with pan-cancer therapeutic efficacy” (Open Biology, 2024)
Where a name gives a salt, the structure may show the parent alone.

Assays:
[1] = test system: NCI-60 cancer cell lines; settings: for anti-cancer activity in NCI-60 single-dose testing: single dose 2.5 µM
[2] = test system: A549 human lung cancer xenograft; assay: A549 xenograft studies; settings: for tumour growth inhibition (TGI): A549 xenograft, Gemcitabine 100 mg kg^−1 twice weekly
[3] = test system: Mpox Zaire 79; type: cell-based, Mpox virus; settings: read-out: EC50 against Mpox
[4] = test system: Hennes 20 cells; assay: Cell growth recovery assay; type: cell-based, Chinese hamster; settings: PAV-617 0.3 µM 24 h, PAV-951 0.4 µM 6 h, followed to day 14
Method: To confirm that the inhibition observed in low-density Hennes 20 cells resulted from temporary arrest of proliferation and not cell death, compound was removed after a period of treatment and cell growth was measured over the subsequent two weeks for recovery potential. Once compound was removed, following a period of recovery, cell proliferation was restored over time for both chemotypes (see figure 1f,g). By day 11, cell density in compound-treated cells had caught up to that in the DMSO-treated cells (see figure 1f,g).
A 96-well plate was seeded with either Hennes 20 or LNCaP C-33 cells at 500 cells per well in 90 µl of minimum essential media and incubated at 37°C for 24 h. 0.5% DMSO was diluted in media and added to six control wells for each plate. PAV-617 was diluted in media and added to three wells at a concentration of 0.3 µM. PAV-951 was diluted in media and added to concentration of 0.4 µM. After 24 h of PAV-617 treatment or 6 h of PAV-951 treatment, the medium containing compound was removed and replaced with fresh media. After 72 h (day 5), plates were assayed with AlamarBlue and fluorescence was read at 530/590. The medium containing AlamarBlue was removed and replaced with fresh media. After another 72 h (day 8) plates were assayed with AlamarBlue and fluorescence again, then medium containing AlamarBlue was removed and replaced with fresh media. […]

[5] = test system: LNCaP C-33 cells; assay: Cell growth recovery assay; type: cell-based, human; settings: PAV-617 0.3 µM 24 h, PAV-951 0.4 µM 6 h, followed
[6] = test system: BB1 patient biopsy derived cell line (benign adenoma); assay: BB1 and BB5 adenoma versus carcinoma screen (confocal imaging); type: cell-based, human; settings: 60 h, percent ChromaLive negative
[7] = test system: Hennes 20 cells; assay: High density/low density 'arrest of proliferation' assay; type: cell-based, Chinese hamster; settings: Hennes 20, 72 h, AlamarBlue
[8] = test system: A549; assay: In-house cancer cell viability screen (AlamarBlue); type: cell-based, human; settings: for change of potency when compound is added at the time of plating rather than 24 h later: A549; for IC50: Homo sapiens, AlamarBlue
[9] = test system: HT-29 colorectal cancer xenograft; assay: HT-29 xenograft study; type: in vivo, mouse; settings: 17 days, PAV-951 3 mg kg^−1 IV, Irinotecan 60 mg kg^−1 IP
Method: In the second animal efficacy study, human HT-29 colorectal adenocarcinoma cells were grafted subcutaneously onto mice. After tumour establishment, the animals received treatment with vehicle, 3 mg kg^−1 PAV-951 or 60 mg kg^−1 of a positive control drug Irinotecan. […]. Survival was not assessed as part of the study.
HT-29 cells growing in HBSS medium were suspended in Matrigel. 0.1 ml of the cell suspension containing 5 × 10^6 cells were injected subcutaneously into the left flank region of male, 6–8 week old SCID mice. After tumour establishment, animals were divided randomly into groups of six and treated daily by IV with vehicle daily for 17 days, 3 mg kg^−1 PAV-951 three times per week for 17 days, or treated by IP with 60 mg kg^−1 Irinotecan every 4 days for 14 days. Tumour volume was calculated using the formula: (L × W2)/2 where L is the largest diameter and W is the smallest diameter of the tumour. Statistical analysis was performed using GraphPad Prism (Ver. 5.03). Statistical analysis of tumour growth inhibition between the Control and Treated groups was performed by using ne-way ANOVA followed by Dunnett’s test.

[10] = in vivo; settings: female, Balb/c, mouse, ip
[11] = test system: A549 and MRC-5 cells; assay: Toxicity to A549 cancer line versus non-cancer MRC-5 cells; type: cell-based
[12] = Mouse pharmacokinetics (plasma and lung); type: in vivo; settings: PAV-621 5 mg kg^−1 IP versus PAV-951 2.5 mg kg^−1 IV
Method: Pharmacokinetic (PK) studies were conducted in male Sprague Dawley Rats aged 8–10 weeks or male CD1 mice aged 5–6 weeks or Balb/c nude mice. Treatment groups were made up of four animals each and dosing regimens for disclosed data is provided. Animals were sacrificed at the end of the study period using an overdose of CO2. PK studies were conducted at Vipragen Biosciences Private Limited or Pharmaron in accordance with the CPCSEA guidelines and ARRIVE guidelines.
CD1 or Balb/c nude mice aged 6–8 weeks were randomly divided into treatment groups with three animals per group. Animals in each treatment group were weighed and received either one […] intravenous dose of either vehicle (10% DMSO, 45% propylene glycol, 45% sterile water) or 2.5 mg kg^−1 PAV-951, or one intraperitoneal dose of either vehicle ([…] 10% DMSO, 45% propylene glycol, 45% sterile water) or 5 mg kg^−1 PAV-621. Animals were sacrificed after 1 h, 4 h, 8 h, 24 h post-dosing. Concentration of drug in the plasma and lung over time was measured using a Waters Acquity TQD LCMS/MS. Maximum concentration (Cmax) was determined to be the maximum concentration detected in a dataset. Half life, area under the curve and mean residence time were calculated with Phoenix WinNolin software.

[13] = mouse MTD; cited from earlier work
[14] = PAV-617 study, 28 days, IP, PAV-617 10 mg kg^−1 once daily

In the case of “3,7-Di(pyrrolidin-1-yl) phenothiazinium iodide [PAV-617]”, the “dose inhibiting growth relative to vehicle-treated cells (GI50)” value ([1]; for more than 40 cell lines) is reported as 2–3 digit nanomolar range, the CC50 ([1]; read-out: dose required to decrease cell viability below that at the time compound was added (LC50), for at least 40 cell lines) is reported as over 100 µM and the “tumour growth inhibition (TGI)” value [2, 14] is reported as 63%. For the same compound, the “adverse effects at the doses of the xenograft studies” value ([2]; clinical signs, weight loss, histopathological changes, blood cell count) was “without any serious adverse effects”, the EC50 [3] was 0.201 µM and the “recovery of cell growth after removal of compound” value [4] was “recovered over time”. The “recovery of cell growth after removal of compound” value [5] was “did not recover”, the IC50 [6] was 0.81 µM and the “inhibitory effect at low (500 cells per well) versus high (15 000 cells per well) density” value [7] was “difference between their inhibitory effects on low and high density-plated Hennes 20 cells”.

For `Nc1ccn([C@@H]2O[C@H](CO)[C@@H](O)C2(F)F)c(=O)n1` [Gemcitabine, Gemcitabine hydrochloride, reference compound], the “tumour growth inhibition (TGI)” value [2, 14] was 64%, the “tumour growth inhibition (TGI)” value ([2]; PAV-951 study, 14 days, IV, PAV-951 1.5 mg kg^−1 once daily) was 84% and the “change of potency when compound is added at the time of plating rather than 24 h later” value [8] was “did not significantly affect”. It also gave an IC50 ([8]; A549 (treatment 0 h after plating)) of 3.01 µM and an IC50 ([8]; A549 (treatment 24 h after plating), 72 h) of 3.92 µM.

For `CCc1c2c(nc3ccc(OC(=O)N4CCC(N5CCCCC5)CC4)cc13)-c1cc3c(c(=O)n1C2)COC(=O)[C@]3(O)CC` [Irinotecan, reference compound], the “tumour growth inhibition (TGI)” value [9] was 108%.

With `c1ccc(CCNc2ncnc3cc(N4CCN(c5ccc6c(NCCc7ccccc7)ncnc6c5)CC4)ccc23)cc1` [PAV-436] the “anti-cancer activity in NCI-60 single-dose testing” value [1] was “lost all anti-cancer activity on all cell lines examined”.

In the case of `CCCCNc1ncnc2cc(N3CCN(c4ccc5c(NCCCC)ncnc5c4)CC3)ccc12` [PAV-621], the “anti-cancer activity in NCI-60 single-dose testing” value [1] is reported as “improvements relative to PAV-951”, the MTD at 72 h [10] is reported as 7.5 mg/kg and the “toxicity to A549 cancer line compared with non-cancer MRC-5 cells” value [11] is reported as “selectively toxic to the A549 cancer line”. The “exposure in the lung” value [12] was “comparable exposure with PAV-951” and the “change of potency when compound is added at the time of plating rather than 24 h later” value [8] was “increased potency”.

For `CCC1=C[C@@H]2CN(C1)Cc1c([nH]c3ccccc13)[C@@](C(=O)OC)(c1cc3c(cc1OC)N(C)[C@H]1[C@@](O)(C(=O)OC)[C@H](OC(C)=O)[C@]4(CC)C=CCN5CC[C@]31[C@@H]54)C2` [Vinorelbine], the MTD [13] is listed as 10 mg/kg.

For cisplatin, the MTD [13] is listed as 6 mg/kg.
